Converted amounts (≈) assume the structure as drawn. Read-outs that look alike come from different tables or passages of the source.
Columns and labels:
Assay type in all cases: cell-based
[1] = test system: M. suipneumoniae NB12; test: Anti-mycoplasmal MIC in vitro, Friis broth agarose (Table 1); settings: Mesomycoplasma hyopneumoniae
[2] = test system: M. suipneumoniae MS 16; test: as above; settings: Mesomycoplasma hyopneumoniae, MS16, 144 h
[3] = test system: M. suipneumoniae LABER; test: as above; settings: Mesomycoplasma hyopneumoniae, 144 h
[4] = test system: M. suipneumoniae TAM 6N; test: as above; settings: Mesomycoplasma hyopneumoniae, TAM6N, 144 h
[5] = test system: M. suipneumoniae ATCC 25095; test: as above; settings: Mesomycoplasma hyopneumoniae, ATCC25095, 144 h
[6] = test system: M. hyorhinis ATCC 25021; test: as above; settings: Mesomycoplasma hyorhinis, ATCC25021, 144 h
[7] = test system: M. hyosynoviae ATOC 25591; test: as above; settings: 144 h
[8] = test system: M. gallisepticum S6; test: as above; settings: Mycoplasmoides gallisepticum
[9] = test system: Erysipelothrix rhusiopathiae NCTC 8163; test: Veterinary bacteria MIC, Diagnostic Sensitivity Test Agar (Table 2)
Experimental: (§1) The values were determined using a two fold serial dilutions in Diagnostic Sensitivity Test Agar with an inoculum of 10^4 organisms and incubation for 18 hours at 37° C.

[10] = test system: Past. multocida PA1; test: as above; settings: Pasteurella multocida
Experimental: as §1

[11] = test system: Past. multocida PA2; test: as above; settings: Pasteurella multocida
Experimental: as §1

[12] = test system: Strep. suis (group D) SPS11; test: as above; settings: Streptococcus suis
Experimental: as §1

[13] = test system: Strep. uberis SPO1; test: as above; settings: Streptococcus uberis
Experimental: as §1

[14] = test system: Bacillus subtilis 6633; test: Human bacteria MIC, nutrient agar with chocolated horse blood (Table 3)
Experimental: (§2) The values were determined by serial dilutions in nutrient agar with 5% chocolated horse blood after incubations for 18 hours at 37° C.

[15] = test system: Corynebacterium xerosis 9755; test: as above
Experimental: as §2

[16] = test system: E. Coli NCTC 10418; test: as above; settings: Escherichia coli
Experimental: as §2

[17] = test system: Haemophilus influenzae Q1; test: as above
Experimental: as §2

[18] = test system: K. aerogenes A; test: as above; settings: Klebsiella aerogenes
Experimental: as §2

[19] = test system: P. mirabilis 889; test: as above
Experimental: as §2

[20] = test system: Pasteurella multocida 1633; test: as above
Experimental: as §2

[21] = test system: Ps. aeruginosa NCTC 10662; test: as above; settings: Pseudomonas aeruginosa
Experimental: as §2

[22] = test system: Sarcina lutea 8340; test: as above
Experimental: as §2

[23] = test system: Staph. aureus Oxford; test: as above; settings: Staphylococcus aureus
Experimental: as §2

[24] = test system: Staph. aureus Russell; test: as above; settings: Staphylococcus aureus
Experimental: as §2

[25] = test system: Staph. aureus W2827; test: as above; settings: Staphylococcus aureus
Experimental: as §2

[26] = test system: Strep. faecalis 1; test: as above
Experimental: as §2

[27] = test system: Strep. pyogenes R80/421-A; test: as above; settings: Streptococcus pyogenes
Experimental: as §2

[28] = Erysipelothrix rhusiopathiae, NCTC8163, 18 h
[29] = Strep. uberis SPO1, DST Agar, 10^4 organisms, 18 hours 37° C., read-out: MIC
[30] = Corynebacterium xerosis, 9755, 18 h
[31] = Haemophilus influenzae Q1, nutrient agar 5% chocolated horse blood, 18 hours 37° C., read-out: MIC
[32] = Pasteurella multocida 1633, nutrient agar 5% chocolated horse blood, 18 hours 37° C., read-out: MIC
[33] = Enterococcus faecalis, Strep. faecalis 1, nutrient agar 5% chocolated horse blood, 18 hours 37° C., read-out: MIC
[34] = Strep. pyogenes R80/421-A, nutrient agar 5% chocolated horse blood, 18 hours 37° C., read-out: MIC

C/C(=C\C(=O)OCc1ccc([N+](=O)[O-])cc1Cl)CC1OCC(CC2OC2C(C)C(C)O)C(O)C1O (stereo not drawn) [Example 11, 2-chloro-4-nitrobenzyl monate A]
MIC ([1]; NB12, 144 h): 1 µg/mL (≈ 1.95 µM) | MIC [2]: 1 µg/mL (≈ 1.95 µM) | MIC [3]: 1 µg/mL (≈ 1.95 µM) | MIC [4]: 2.5 µg/mL (≈ 4.86 µM) | MIC [5]: 1 µg/mL (≈ 1.95 µM) | MIC [6]: 0.5 µg/mL (≈ 0.973 µM) | MIC [7]: 0.1 µg/mL (≈ 0.195 µM) | MIC ([8]; S6, 144 h): 2.5 µg/mL (≈ 4.86 µM) | MIC [9, 28]: 5 µg/mL (≈ 9.73 µM) | MIC ([10]; PA1, 18 h): 0.625 µg/mL (≈ 1.22 µM) | MIC ([11]; PA2, 18 h): 0.156 µg/mL (≈ 0.304 µM) | MIC ([12]; 18 h): 0.625 µg/mL (≈ 1.22 µM) | MIC [13, 29]: ≤ 0.019 µg/mL | MIC ([14]; Bacillus subtilis, 6633, 18 h): 0.5 µg/mL (≈ 0.973 µM) | MIC [15, 30]: > 100 µg/mL | MIC ([16]; NCTC10418, 18 h): > 100 µg/mL | MIC [17, 31]: 2.5 µg/mL (≈ 4.86 µM) | MIC ([18]; 18 h): > 100 µg/mL | MIC ([19]; Proteus mirabilis, 889, 18 h): > 100 µg/mL | MIC [20, 32]: 5 µg/mL (≈ 9.73 µM) | MIC ([21]; NCTC10662, 18 h): > 100 µg/mL | MIC ([22]; Micrococcus luteus, 8340, 18 h): > 100 µg/mL | MIC ([23]; 18 h): 1 µg/mL (≈ 1.95 µM) | MIC ([24]; 18 h): 1 µg/mL (≈ 1.95 µM) | MIC ([25]; W2827, 18 h): 1 µg/mL (≈ 1.95 µM) | MIC [26, 33]: 50 µg/mL (≈ 97.3 µM) | MIC [27, 34]: 1 µg/mL (≈ 1.95 µM)

C/C(=C\C(=O)OCc1ccc([N+](=O)[O-])cc1[N+](=O)[O-])CC1OCC(CC2OC2C(C)C(C)O)C(O)C1O (stereo not drawn) [Example 10, 2,4-dinitrobenzyl monate A]
MIC ([1]; NB12, 144 h): 1 µg/mL (≈ 1.91 µM) | MIC [2]: 0.5 µg/mL (≈ 0.953 µM) | MIC [3]: 0.5 µg/mL (≈ 0.953 µM) | MIC [4]: 1 µg/mL (≈ 1.91 µM) | MIC [5]: 0.5 µg/mL (≈ 0.953 µM) | MIC [6]: 0.5 µg/mL (≈ 0.953 µM) | MIC [7]: 0.25 µg/mL (≈ 0.477 µM) | MIC ([8]; S6, 144 h): 5 µg/mL (≈ 9.53 µM) | MIC [9, 28]: 20 µg/mL (≈ 38.1 µM) | MIC ([10]; PA1, 18 h): 2.5 µg/mL (≈ 4.77 µM) | MIC ([11]; PA2, 18 h): 0.625 µg/mL (≈ 1.19 µM) | MIC ([12]; 18 h): 5 µg/mL (≈ 9.53 µM) | MIC ([13]; SPO1, 18 h): 0.312 µg/mL (≈ 0.595 µM) | MIC ([14]; Bacillus subtilis, 6633, 18 h): 0.25 µg/mL (≈ 0.477 µM) | MIC [15, 30]: > 100 µg/mL | MIC ([16]; NCTC10418, 18 h): > 100 µg/mL | MIC ([17]; Haemophilus influenzae, Q1, 18 h): 0.5 µg/mL (≈ 0.953 µM) | MIC ([18]; 18 h): > 100 µg/mL | MIC ([19]; Proteus mirabilis, 889, 18 h): > 100 µg/mL | MIC ([20]; Pasteurella multocida, 1633, 18 h): 2.5 µg/mL (≈ 4.77 µM) | MIC ([21]; NCTC10662, 18 h): > 100 µg/mL | MIC ([22]; Micrococcus luteus, 8340, 18 h): > 100 µg/mL | MIC ([23]; 18 h): 1 µg/mL (≈ 1.91 µM) | MIC ([24]; 18 h): 2.5 µg/mL (≈ 4.77 µM) | MIC ([25]; W2827, 18 h): 2.5 µg/mL (≈ 4.77 µM) | MIC ([26]; Enterococcus faecalis, 1, 18 h): > 100 µg/mL | MIC ([27]; R80/421A, 18 h): 0.25 µg/mL (≈ 0.477 µM)

C/C(=C\C(=O)OCc1cccc([N+](=O)[O-])c1)CC1OCC(CC2OC2C(C)C(C)O)C(O)C1O (stereo not drawn) [Example 2, m-nitrobenzyl monate A]
MIC ([1]; 144 h, M. suipneumoniae NB12, in vitro, 6 days 37° C., read-out: MIC): 0.025 µg/mL (≈ 0.0521 µM) | MIC ([2]; M. suipneumoniae MS 16, in vitro, 6 days 37° C., read-out: MIC): ≤ 0.01 µg/mL | MIC ([3]; M. suipneumoniae LABER, in vitro, 6 days 37° C., read-out: MIC): 0.025 µg/mL (≈ 0.0521 µM) | MIC ([4]; M. suipneumoniae TAM 6N, in vitro, 6 days 37° C., read-out: MIC): 0.025 µg/mL (≈ 0.0521 µM) | MIC [5]: 0.025 µg/mL (≈ 0.0521 µM) | MIC ([6]; M. hyorhinis ATCC 25021, in vitro, 6 days 37° C., read-out: MIC): ≤ 0.01 µg/mL | MIC ([7]; M. hyosynoviae ATOC 25591, in vitro, 6 days 37° C., read-out: MIC): 0.025 µg/mL (≈ 0.0521 µM) | MIC ([8]; 144 h, M. gallisepticum S6, in vitro, 6 days 37° C., read-out: MIC): 2.5 µg/mL (≈ 5.21 µM) | MIC ([9]; NCTC8163, Erysipelothrix rhusiopathiae NCTC 8163, DST Agar, 10^4 organisms, 18 hours 37° C., read-out: MIC): 20 µg/mL (≈ 41.7 µM) | MIC ([10]; Past. multocida PA1, DST Agar, 10^4 organisms, 18 hours 37° C., read-out: MIC): 0.615 µg/mL (≈ 1.28 µM) | MIC ([11]; Past. multocida PA2, DST Agar, 10^4 organisms, 18 hours 37° C., read-out: MIC): 0.312 µg/mL (≈ 0.651 µM) | MIC ([12]; Strep. suis (group D) SPS11, DST Agar, 10^4 organisms, 18 hours 37° C., read-out: MIC): 5 µg/mL (≈ 10.4 µM) | MIC [13, 29]: 0.07 µg/mL (≈ 0.146 µM) | MIC ([14]; Bacillus subtilis 6633, nutrient agar 5% chocolated horse blood, 18 hours 37° C., read-out: MIC): 5 µg/mL (≈ 10.4 µM) | MIC ([15]; Corynebacterium xerosis 9755, nutrient agar 5% chocolated horse blood, 18 hours 37° C., read-out: MIC): > 100 µg/mL | MIC ([16]; NCTC10418, E. coli NCTC 10418, nutrient agar 5% chocolated horse blood, 18 hours 37° C., read-out: MIC): > 100 µg/mL | MIC [17, 31]: 2.5 µg/mL (≈ 5.21 µM) | MIC ([18]; K. aerogenes A, nutrient agar 5% chocolated horse blood, 18 hours 37° C., read-out: MIC): > 100 µg/mL | MIC ([19]; Proteus mirabilis, P. mirabilis 889, nutrient agar 5% chocolated horse blood, 18 hours 37° C., read-out: MIC): > 100 µg/mL | MIC [20, 32]: 10 µg/mL (≈ 20.9 µM) | MIC ([21]; NCTC10662, Ps. aeruginosa NCTC 10662, nutrient agar 5% chocolated horse blood, 18 hours 37° C., read-out: MIC): > 100 µg/mL | MIC ([22]; Micrococcus luteus, Sarcina lutea 8340, nutrient agar 5% chocolated horse blood, 18 hours 37° C., read-out: MIC): > 100 µg/mL | MIC ([23]; Staph. aureus Oxford, nutrient agar 5% chocolated horse blood, 18 hours 37° C., read-out: MIC): 10 µg/mL (≈ 20.9 µM) | MIC ([24]; Staph. aureus Russell, nutrient agar 5% chocolated horse blood, 18 hours 37° C., read-out: MIC): 10 µg/mL (≈ 20.9 µM) | MIC ([25]; Staph. aureus W2827, nutrient agar 5% chocolated horse blood, 18 hours 37° C., read-out: MIC): 25 µg/mL (≈ 52.1 µM) | MIC [26, 33]: > 100 µg/mL | MIC [27, 34]: 2.5 µg/mL (≈ 5.21 µM)
